Test: Acute non-GLP IVT ocular tolerability and toxicity study of sunitinib malate (free drug)
Assay type: in vivo, pigmented rabbits
Conditions: single bilateral IVT injection in PBS, up to 7 days
Procedure: An acute, non-GLP IVT study was conducted to evaluate the ocular tolerability and toxicity of sunitinib malate (free drug) for up to 7 days following a single IVT injection. Sunitinib malate was formulated in phosphate buffered saline and injected bilaterally (0.1 mL) at 0.125 or 1.25 mg per eye.
FIG. 13A, FIG. 13B, and FIG. 13C illustrate select PK profiles for sunitinib malate in the retina, vitreous, and plasma, respectively, from pigmented rabbits.

## CCN(CC)CCNC(=O)c1c(C)[nH]c(/C=C2\C(=O)Nc3ccc(F)cc32)c1C [sunitinib malate]
  no-observed-adverse-effect-level (NOAEL) dose: 0.125 mg/eye

Source: patent US10441548B2, “Aggregating microparticles for medical therapy” (GRAYBUG VISION, INC., priority 2015, dated 2019)
